Converted amounts (≈) assume the structure as drawn. Like-named read-outs stand apart in the source and are kept apart here.
Assays:
[1] = test system: Gram-positive and Gram-negative bacteria; settings: stated as known; cited from earlier work
Sarcina lutea = assay: minimum inhibitory concentration, agar dilution assay; format: cell-based; settings: Micrococcus luteus; agar dilution, 35° C., 20 hours; read-out: minimum inhibitory concentration
How it was run: (§1)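 Two-fold compound dilutions were incorporated into heart infusion agar. Plates were inoculated with overnight Trypto-Soy broth cultures (35 °C, 18-20 h) diluted to about 10^8 cells/ml. After 20 h at 35 °C, MIC was taken as the lowest concentration with no growth.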

[2] = test system: Pseudomonas aeruginosa NCTC10490; assay: as above; format: cell-based; settings: NCTC10490, agar dilution, 35° C., 20 hours, read-out: minimum inhibitory concentration
How it was run: as §1

Enterobacter cloacae 45 = assay: as above; format: cell-based; settings: Enterobacter cloacae, 45; agar dilution, 35° C., 20 hours; read-out: minimum inhibitory concentration
How it was run: as §1

Proteus vulgaris GN76 = assay: as above; format: cell-based; settings: GN76, agar dilution, 35° C., 20 hours, read-out: minimum inhibitory concentration
How it was run: as §1

Proteus rettgeri P7 = assay: as above; format: cell-based; settings: Providencia rettgeri, P7; agar dilution, 35° C., 20 hours; read-out: minimum inhibitory concentration
How it was run: as §1

[3] = test system: Staphylococcus aureus Russell; assay: as above; format: cell-based; settings: agar dilution, 35° C., 20 hours, read-out: minimum inhibitory concentration
How it was run: as §1

Escherichia coli K-12 = assay: as above; format: cell-based; settings: read-out: minimum inhibitory concentration
How it was run: as §1

Alcaligenes faecalis A 1 = assay: as above; format: cell-based; settings: A1, agar dilution, 35° C., 20 hours, read-out: minimum inhibitory concentration
How it was run: as §1

[4] = test system: Pseudomonas aeruginosa IFO3445; assay: as above; format: cell-based; settings: IFO3445, agar dilution, 35° C., 20 hours, read-out: minimum inhibitory concentration
How it was run: as §1

[5] = test system: Klebsiella pneumoniae K-13; assay: as above; format: cell-based; settings: K13, agar dilution, 35° C., 20 hours, read-out: minimum inhibitory concentration
How it was run: as §1

Serratia marcescens S18 = assay: as above; format: cell-based; settings: S18, agar dilution, 35° C., 20 hours, read-out: minimum inhibitory concentration
How it was run: as §1

Proteus mirabilis P6 = assay: as above; format: cell-based; settings: P6, agar dilution, 35° C., 20 hours, read-out: minimum inhibitory concentration
How it was run: as §1

[6] = test system: Staphylococcus aureus Smith; assay: as above; format: cell-based; settings: agar dilution, 35° C., 20 hours, read-out: minimum inhibitory concentration
How it was run: as §1

[7] = test system: Comamonas terrigena B-996; assay: as above; format: cell-based; settings: B996, agar dilution, 35° C., 20 hours, read-out: minimum inhibitory concentration
How it was run: as §1

Proteus sp. P22 = assay: as above; format: cell-based; settings: agar dilution, 35° C., 20 hours; read-out: minimum inhibitory concentration
How it was run: as §1

[8] = test system: Staphylococcus aureus FDA 209P; assay: as above; format: cell-based; settings: FDA209P, agar dilution, 35° C., 20 hours, read-out: minimum inhibitory concentration
How it was run: as §1

[9] = test system: Citrobacter freundii GN 346; assay: as above; format: cell-based; settings: GN346, agar dilution, 35° C., 20 hours, read-out: minimum inhibitory concentration
How it was run: as §1

Enterobacter sp. E8 = assay: as above; format: cell-based; settings: SP.E8, agar dilution, 35° C., 20 hours, read-out: minimum inhibitory concentration
How it was run: as §1

[10] = test system: Bacillus subtilis ATCC 6633; assay: as above; format: cell-based; settings: ATCC6633, agar dilution, 35° C., 20 hours, read-out: minimum inhibitory concentration
How it was run: as §1

Providencia sp. P8 = assay: as above; format: cell-based; settings: SP.P8, agar dilution, 35° C., 20 hours, read-out: minimum inhibitory concentration
How it was run: as §1

Escherichia coli RGN 823 = assay: as above; format: cell-based; settings: RGN823, agar dilution, 35° C., 20 hours, read-out: minimum inhibitory concentration
How it was run: as §1

[11] = test system: Staphylococcus epidermidis; assay: as above; format: cell-based; settings: agar dilution, 35° C., 20 hours, read-out: minimum inhibitory concentration
How it was run: as §1

Serratia marcescens T55 = assay: as above; format: cell-based; settings: T55, agar dilution, 35° C., 20 hours, read-out: minimum inhibitory concentration
How it was run: as §1

[12] = test system: Enterobacter aerogenes E19; assay: as above; format: cell-based; settings: Klebsiella aerogenes, E19; agar dilution, 35° C., 20 hours; read-out: minimum inhibitory concentration
How it was run: as §1

[13] = Test for concentration in blood (plasma of mouse, bioassay); format: in vivo; settings: sc, subcutaneous, 2 mg/mouse, average of five mice
Procedure: Typical species of the compounds of formula (I-d) were each administered subcutaneously to five mice in a dose of 2 mg. After 5 minutes from the administration, a small amount of blood was periodically drawn from the eyes of the mice into a heparinized capillary tube, and centrifuged. The concentration of the compound in the supernatant liquid (plasma) was determined by a bioassay method using Comamonas terrigena B-996.

[14] = test system: Staphylococcus aureus Smith strain; assay: Infection treating test; format: in vivo, Staphylococcus aureus (in ddy male mice); settings: sc, 2 h, mice infected intraperitoneally, 5×10^5 cells per mouse, subcutaneous, two hours after infection, read-out: CD50 (the source's name)
Procedure: The in vivo activities of the compounds of formula (I-d) were determined by using mice (five per group, ddy male mice, Shizuoka) which had been intraperitoneally infected with Staphylococcus aureus Smith strain in an amount of 5×10^5 cells per mouse. Two hours after the infection, an injection containing a sodium salt of each of the compounds of formula (I-d) was subcutaneously administered to the mice.

solubility = format: physicochemical
[15] = test system: Alcaligenes faecalis B326; assay: minimum inhibitory concentration, agar dilution assay; format: cell-based; settings: B326, agar dilution, 35° C., 20 hours, read-out: minimum inhibitory concentration
How it was run: as §1

Compound	MIC (Sarcina lutea)	MIC [2]	MIC (Enterobacter cloacae 45)	MIC (Proteus vulgaris GN76)	MIC (Proteus rettgeri P7)	MIC [3]	MIC (Alcaligenes faecalis A 1)	MIC [4]	MIC [5]	MIC (Serratia marcescens S18)	MIC (Proteus mirabilis P6)	MIC [6]	MIC [7]	MIC (Proteus sp. P22)	MIC [8]	MIC [9]	MIC (Enterobacter sp. E8)	MIC [10]	MIC (Providencia sp. P8)	MIC [11]	also measured
Cc1nnc(SCC2=C(C(=O)O)N3C(=O)[C@@H](NC(=O)Cn4cnnn4)[C@H]3SC2)s1 [CEZ, cephazolin, reference compound]	0.39 µg/mL (≈ 0.858 µM)	> 200 µg/mL	> 200 µg/mL	> 200 µg/mL	> 200 µg/mL	0.2 µg/mL (≈ 0.44 µM)	3.13 µg/mL (≈ 6.89 µM)	> 200 µg/mL	200 µg/mL (≈ 440 µM)	> 200 µg/mL	6.25 µg/mL (≈ 13.8 µM)	0.2 µg/mL (≈ 0.44 µM)	0.2 µg/mL (≈ 0.44 µM)	> 200 µg/mL	0.1 µg/mL (≈ 0.22 µM)	> 200 µg/mL	3.13 µg/mL (≈ 6.89 µM)	0.2 µg/mL (≈ 0.44 µM)	100 µg/mL (≈ 220 µM)	0.1 µg/mL (≈ 0.22 µM)	effectiveness against Pseudomonas aeruginosa and Serratia, Proteus, Klebsiella, Enterobacter [1]: known to be effective against Pseudomonas aeruginosa and microorganisms of the genus Serratia, Proteus, Klebsiella, and Enterobacter; MIC (Escherichia coli K-12; K12, 20 h): 1.56 µg/mL (≈ 3.43 µM); MIC (Escherichia coli RGN 823): 200 µg/mL (≈ 440 µM); MIC (Serratia marcescens T55): > 200 µg/mL; MIC [12]: > 200 µg/mL
CC(=O)NCCSC1=C(C(=O)O)N2C(=O)[C@H](C(C)O)[C@H]2C1 (stereo partly drawn) [PS-3A . Na]	–	–	–	–	–	–	–	–	–	–	–	–	–	–	–	–	–	–	–	–	half-life ([13]; read-out: Half period): 12 min; Cmax ([13]; read-out: Maximum concentration): 52 µg/mL; ED50 [14]: 4 mg/kg
CC(=O)NCCSC1=C(C(=O)O)N2C(=O)[C@H](C(C)O)[C@H]2C1 (stereo partly drawn) [PS-3A, 3-(2-acetamidoethylthio)-6-(1-hydroxyethyl)-7-oxo-1-azabicyclo[3.2.0]hept-2-ene-2-carboxylic acid, reference compound]	0.63 µg/mL (≈ 2 µM)	20.1 µg/mL (≈ 63.9 µM)	10 µg/mL (≈ 31.8 µM)	20.1 µg/mL (≈ 63.9 µM)	20.1 µg/mL (≈ 63.9 µM)	1.25 µg/mL (≈ 3.98 µM)	1.25 µg/mL (≈ 3.98 µM)	20.1 µg/mL (≈ 63.9 µM)	10 µg/mL (≈ 31.8 µM)	10 µg/mL (≈ 31.8 µM)	20.1 µg/mL (≈ 63.9 µM)	1.25 µg/mL (≈ 3.98 µM)	0.08 µg/mL (≈ 0.254 µM)	20.1 µg/mL (≈ 63.9 µM)	0.31 µg/mL (≈ 0.986 µM)	10 µg/mL (≈ 31.8 µM)	5 µg/mL (≈ 15.9 µM)	1.25 µg/mL (≈ 3.98 µM)	5 µg/mL (≈ 15.9 µM)	2.5 µg/mL (≈ 7.95 µM)	Solubility in acetone (solubility; acetone): substantially insoluble in acetone; Solubility in water (solubility; water): Readily soluble in water; MIC (Escherichia coli K-12; K12, agar dilution, 35° C., 20 hours): 2.5 µg/mL (≈ 7.95 µM); MIC (Escherichia coli RGN 823): 5 µg/mL (≈ 15.9 µM); MIC (Serratia marcescens T55): 20.1 µg/mL (≈ 63.9 µM); MIC [12]: 20.1 µg/mL (≈ 63.9 µM)
CCCCSC1=C(C(=O)O)N2C(=O)C(C(C)C)C2C1 (stereo not drawn) [R1 CH3, R21 (CH2CH3)3]	7.5 µg/mL (≈ 26.5 µM)	–	–	–	–	–	–	–	–	–	–	–	0.48 µg/mL (≈ 1.69 µM)	–	0.48 µg/mL (≈ 1.69 µM)	–	–	15 µg/mL (≈ 52.9 µM)	–	0.12 µg/mL (≈ 0.423 µM)	MIC [15]: 20 µg/mL (≈ 70.6 µM)

Source: patent US4337199A, “Antibiotic β-lactam compounds, production thereof, and their use as antimicrobial agent” (Sanraku-Ocean Co., Ltd., priority 1978, dated 1982)
